Reference: ChEMBL document CHEMBL4257449, “New N-(2-phenyl-4-oxo-1,3-thiazolidin-3-yl)-1,2-benzothiazole-3-carboxamides and acetamides as antimicrobial agents” (2017)
Values after ≈ are worked out from the molar mass of the structure shown.

Legend:
Penicillium ochrochloron [1] = experiment: Antifungal activity against Penicillium ochrochloron ATCC 9112 after 72 hrs by serial dilution method; format: functional; conditions: ATCC 9112, 72 h
Bacillus cereus [2] = experiment: Antibacterial activity against Bacillus cereus after 24 hrs by microdilution method; format: functional
Bacillus cereus [3] = experiment: Bactericidal activity against Bacillus cereus incubated for 24 hrs followed by serial sub-cultivation and measured after 24 hrs by microdilution method; format: functional
Micrococcus flavus [4] = experiment: Antibacterial activity against Micrococcus flavus ATCC 10240 after 24 hrs by microdilution method; format: functional; conditions: ATCC 10240, 24 h
Micrococcus flavus [5] = experiment: Bactericidal activity against Micrococcus flavus ATCC 10240 incubated for 24 hrs followed by serial sub-cultivation and measured after 24 hrs by microdilution method; format: functional
Staphylococcus aureus [6] = experiment: Antibacterial activity against Staphylococcus aureus ATCC 6538 after 24 hrs by microdilution method; format: functional; conditions: ATCC 6538, 24 h
Staphylococcus aureus [7] = experiment: Bactericidal activity against Staphylococcus aureus ATCC 6538 incubated for 24 hrs followed by serial sub-cultivation and measured after 24 hrs by microdilution method; format: functional
Listeria monocytogenes [8] = experiment: Antibacterial activity against Listeria monocytogenes NCTC 7973 after 24 hrs by microdilution method; format: functional; conditions: NCTC 7973, 24 h
Listeria monocytogenes [9] = experiment: Bactericidal activity against Listeria monocytogenes NCTC 7973 incubated for 24 hrs followed by serial sub-cultivation and measured after 24 hrs by microdilution method; format: functional
Escherichia coli [10] = experiment: Antibacterial activity against Escherichia coli ATCC 35210 after 24 hrs by microdilution method; format: functional; conditions: ATCC 35210, 24 h
Escherichia coli [11] = experiment: Bactericidal activity against Escherichia coli ATCC 35210 incubated for 24 hrs followed by serial sub-cultivation and measured after 24 hrs by microdilution method; format: functional
Enterobacter cloacae [12] = experiment: Antibacterial activity against Enterobacter cloacae after 24 hrs by microdilution method; format: functional
Enterobacter cloacae [13] = experiment: Bactericidal activity against Enterobacter cloacae incubated for 24 hrs followed by serial sub-cultivation and measured after 24 hrs by microdilution method; format: functional
Pseudomonas aeruginosa [14] = experiment: Antibacterial activity against Pseudomonas aeruginosa ATCC 27853 after 24 hrs by microdilution method; format: functional; conditions: ATCC 27853, 24 h
Pseudomonas aeruginosa [15] = experiment: Bactericidal activity against Pseudomonas aeruginosa ATCC 27853 incubated for 24 hrs followed by serial sub-cultivation and measured after 24 hrs by microdilution method; format: functional
Salmonella typhimurium [16] = experiment: Antibacterial activity against Salmonella typhimurium ATCC 13311 after 24 hrs by microdilution method; format: functional, Salmonella enterica subsp. enterica serovar Typhimurium; conditions: Salmonella enterica, ATCC 13311, 24 h
Salmonella typhimurium [17] = experiment: Bactericidal activity against Salmonella typhimurium ATCC 13311 incubated for 24 hrs followed by serial sub-cultivation and measured after 24 hrs by microdilution method; format: functional, Salmonella enterica subsp. enterica serovar Typhimurium
Aspergillus versicolor [18] = experiment: Antifungal activity against Aspergillus versicolor ATCC 11730 after 72 hrs by serial dilution method; format: functional; conditions: ATCC 11730, 72 h
Aspergillus fumigatus [19] = experiment: Antifungal activity against Aspergillus fumigatus after 72 hrs by serial dilution method; format: functional
Aspergillus fumigatus [20] = experiment: Fungicidal activity against Aspergillus fumigatus incubated for 72 hrs followed by serial sub-cultivation for 72 hrs and measured after 72 hrs by serial dilution method; format: functional
Aspergillus versicolor [21] = experiment: Fungicidal activity against Aspergillus versicolor ATCC 11730 incubated for 72 hrs followed by serial sub-cultivation for 72 hrs and measured after 72 hrs by serial dilution method; format: functional
Aspergillus ochraceus [22] = experiment: Antifungal activity against Aspergillus ochraceus ATCC 12066 after 72 hrs by serial dilution method; format: functional; conditions: ATCC 12066, 72 h
Aspergillus ochraceus [23] = experiment: Fungicidal activity against Aspergillus ochraceus ATCC 12066 incubated for 72 hrs followed by serial sub-cultivation for 72 hrs and measured after 72 hrs by serial dilution method; format: functional
Aspergillus niger [24] = experiment: Antifungal activity against Aspergillus niger ATCC 6275 after 72 hrs by serial dilution method; format: functional; conditions: ATCC 6275, 72 h
Aspergillus niger [25] = experiment: Fungicidal activity against Aspergillus niger ATCC 6275 incubated for 72 hrs followed by serial sub-cultivation for 72 hrs and measured after 72 hrs by serial dilution method; format: functional
Trichoderma viride [26] = experiment: Antifungal activity against Trichoderma viride IAM 5061 after 72 hrs by serial dilution method; format: functional; conditions: IAM 5061, 72 h
Trichoderma viride [27] = experiment: Fungicidal activity against Trichoderma viride IAM 5061 incubated for 72 hrs followed by serial sub-cultivation for 72 hrs and measured after 72 hrs by serial dilution method; format: functional
Talaromyces funiculosus [28] = experiment: Antifungal activity against Penicillium funiculosum ATCC 36839 after 72 hrs by serial dilution method; format: functional; conditions: ATCC 36839, 72 h
Talaromyces funiculosus [29] = experiment: Fungicidal activity against Penicillium funiculosum ATCC 36839 incubated for 72 hrs followed by serial sub-cultivation for 72 hrs and measured after 72 hrs by serial dilution method; format: functional
Penicillium ochrochloron [30] = experiment: Fungicidal activity against Penicillium ochrochloron ATCC 9112 incubated for 72 hrs followed by serial sub-cultivation for 72 hrs and measured after 72 hrs by serial dilution method; format: functional
Candida albicans [31] = experiment: Antifungal activity against Candida albicans after 72 hrs by serial dilution method; format: functional
Candida albicans [32] = experiment: Fungicidal activity against Candida albicans incubated for 72 hrs followed by serial sub-cultivation for 72 hrs and measured after 72 hrs by serial dilution method; format: functional

Structure (SMILES) | MIC (Penicillium ochrochloron [1]) [µM] | MIC (Bacillus cereus [2]) [µM] | MBC99.5 (Bacillus cereus [3]) [×10⁻² umol/ml] | MIC (Micrococcus flavus [4]) [µM] | MBC99.5 (Micrococcus flavus [5]) [×10⁻² umol/ml] | MIC (Staphylococcus aureus [6]) [µM] | MBC99.5 (Staphylococcus aureus [7]) [×10⁻² umol/ml] | MIC (Listeria monocytogenes [8]) [µM] | MBC99.5 (Listeria monocytogenes [9]) [×10⁻² umol/ml] | MIC (Escherichia coli [10]) [µM] | MBC99.5 (Escherichia coli [11]) [×10⁻² umol/ml] | MIC (Enterobacter cloacae [12]) [µM] | MBC99.5 (Enterobacter cloacae [13]) [×10⁻² umol/ml] | MIC (Pseudomonas aeruginosa [14]) [µM] | MBC99.5 (Pseudomonas aeruginosa [15]) [×10⁻² umol/ml] | MIC (Salmonella typhimurium [16]) [µM] | MBC99.5 (Salmonella typhimurium [17]) [×10⁻² umol/ml] | MIC (Aspergillus versicolor [18]) [µM] | MIC (Aspergillus fumigatus [19]) [µM] | MFC99.5 (Aspergillus fumigatus [20]) [×10⁻² umol/ml] | other results
O=C(N/N=C/c1c(F)cccc1Cl)c1nsc2ccccc12 | 60 (≈ 20 µg/mL) | 120 (≈ 40.1 µg/mL) | 24 | 120 (≈ 40.1 µg/mL) | 24 | 60 (≈ 20 µg/mL) | 12 | 240 (≈ 80.1 µg/mL) | 48 | 120 (≈ 40.1 µg/mL) | 24 | 60 (≈ 20 µg/mL) | 12 | 240 (≈ 80.1 µg/mL) | 48 | 60 (≈ 20 µg/mL) | 12 | 60 (≈ 20 µg/mL) | 240 (≈ 80.1 µg/mL) | 30 | MFC99.5 (Aspergillus versicolor [21]): 12 ×10⁻² umol/ml; MIC (Aspergillus ochraceus [22]): 60 µM (≈ 20 µg/mL); MFC99.5 (Aspergillus ochraceus [23]): 12 ×10⁻² umol/ml; MIC (Aspergillus niger [24]): 60 µM (≈ 20 µg/mL); MFC99.5 (Aspergillus niger [25]): 12 ×10⁻² umol/ml; MIC (Trichoderma viride [26]): 240 µM (≈ 80.1 µg/mL); MFC99.5 (Trichoderma viride [27]): 48 ×10⁻² umol/ml; MIC (Talaromyces funiculosus [28]): 30 µM (≈ 10 µg/mL); MFC99.5 (Talaromyces funiculosus [29]): 6 ×10⁻² umol/ml; MFC99.5 (Penicillium ochrochloron [30]): 12 ×10⁻² umol/ml; MIC (Candida albicans [31]): 240 µM (≈ 80.1 µg/mL); MFC99.5 (Candida albicans [32]): 30 ×10⁻² umol/ml
O=C(Cc1nsc2ccccc12)N/N=C/c1c(F)cccc1F | 181 (≈ 60 µg/mL) | 116 (≈ 38.4 µg/mL) | 23.2 | 116 (≈ 38.4 µg/mL) | 23.2 | 29 (≈ 9.61 µg/mL) | 23.2 | 116 (≈ 38.4 µg/mL) | 23.2 | 116 (≈ 38.4 µg/mL) | 23.2 | 116 (≈ 38.4 µg/mL) | 23.2 | 116 (≈ 38.4 µg/mL) | 23.2 | 116 (≈ 38.4 µg/mL) | 23.2 | 91 (≈ 30.2 µg/mL) | 482 (≈ 160 µg/mL) | 96.4 | MFC99.5 (Aspergillus versicolor [21]): 12.1 ×10⁻² umol/ml; MIC (Aspergillus ochraceus [22]): 121 µM (≈ 40.1 µg/mL); MFC99.5 (Aspergillus ochraceus [23]): 24.1 ×10⁻² umol/ml; MIC (Aspergillus niger [24]): 121 µM (≈ 40.1 µg/mL); MFC99.5 (Aspergillus niger [25]): 24.1 ×10⁻² umol/ml; MIC (Trichoderma viride [26]): 61 µM (≈ 20.2 µg/mL); MFC99.5 (Trichoderma viride [27]): 12.1 ×10⁻² umol/ml; MIC (Talaromyces funiculosus [28]): 91 µM (≈ 30.2 µg/mL); MFC99.5 (Talaromyces funiculosus [29]): 12.1 ×10⁻² umol/ml; MFC99.5 (Penicillium ochrochloron [30]): 24.1 ×10⁻² umol/ml; MIC (Candida albicans [31]): 121 µM (≈ 40.1 µg/mL); MFC99.5 (Candida albicans [32]): 24.1 ×10⁻² umol/ml
O=C(N/N=C/c1c(Cl)cccc1Cl)c1nsc2ccccc12 | 232 (≈ 81.3 µg/mL) | 116 (≈ 40.6 µg/mL) | 23.2 | 116 (≈ 40.6 µg/mL) | 23.2 | 58 (≈ 20.3 µg/mL) | 17.6 | 232 (≈ 81.3 µg/mL) | 46.4 | 116 (≈ 40.6 µg/mL) | 23.2 | 116 (≈ 40.6 µg/mL) | 23.2 | 232 (≈ 81.3 µg/mL) | 46.4 | 116 (≈ 40.6 µg/mL) | 23.2 | 464 (≈ 163 µg/mL) | 232 (≈ 81.3 µg/mL) | 46.4 | MFC99.5 (Aspergillus versicolor [21]): 58 ×10⁻² umol/ml; MIC (Aspergillus ochraceus [22]): 232 µM (≈ 81.3 µg/mL); MFC99.5 (Aspergillus ochraceus [23]): 46.4 ×10⁻² umol/ml; MIC (Aspergillus niger [24]): 464 µM (≈ 163 µg/mL); MFC99.5 (Aspergillus niger [25]): 58 ×10⁻² umol/ml; MIC (Trichoderma viride [26]): 116 µM (≈ 40.6 µg/mL); MFC99.5 (Trichoderma viride [27]): 46.4 ×10⁻² umol/ml; MIC (Talaromyces funiculosus [28]): 464 µM (≈ 163 µg/mL); MFC99.5 (Talaromyces funiculosus [29]): 58 ×10⁻² umol/ml; MFC99.5 (Penicillium ochrochloron [30]): 46.4 ×10⁻² umol/ml; MIC (Candida albicans [31]): 232 µM (≈ 81.3 µg/mL); MFC99.5 (Candida albicans [32]): 46.4 ×10⁻² umol/ml
O=C(N/N=C/c1c(F)cccc1F)c1nsc2ccccc12 | 126 (≈ 40 µg/mL) | 126 (≈ 40 µg/mL) | 25.2 | 252 (≈ 80 µg/mL) | 50.4 | 126 (≈ 40 µg/mL) | 25.2 | 252 (≈ 80 µg/mL) | 50.4 | 252 (≈ 80 µg/mL) | 50.4 | 63 (≈ 20 µg/mL) | 25.2 | 252 (≈ 80 µg/mL) | 50.4 | 31.5 (≈ 10 µg/mL) | 6.3 | 15.8 (≈ 5.01 µg/mL) | 15.8 (≈ 5.01 µg/mL) | 25.2 | MFC99.5 (Aspergillus versicolor [21]): 12.6 ×10⁻² umol/ml; MIC (Aspergillus ochraceus [22]): 15.8 µM (≈ 5.01 µg/mL); MFC99.5 (Aspergillus ochraceus [23]): 12.6 ×10⁻² umol/ml; MIC (Aspergillus niger [24]): 252 µM (≈ 80 µg/mL); MFC99.5 (Aspergillus niger [25]): 50.4 ×10⁻² umol/ml; MIC (Trichoderma viride [26]): 126 µM (≈ 40 µg/mL); MFC99.5 (Trichoderma viride [27]): 25.2 ×10⁻² umol/ml; MIC (Talaromyces funiculosus [28]): 31.5 µM (≈ 10 µg/mL); MFC99.5 (Talaromyces funiculosus [29]): 12.6 ×10⁻² umol/ml; MFC99.5 (Penicillium ochrochloron [30]): 25.2 ×10⁻² umol/ml; MIC (Candida albicans [31]): 252 µM (≈ 80 µg/mL); MFC99.5 (Candida albicans [32]): 50.4 ×10⁻² umol/ml
